# Patent US10238631B2, “Sesquiterpene derivatives and their use in inflammation or cancer treatment” (Academia Sinica, priority 2014, dated 2019)
# “And” between values parts separate entries of the source, which are not always exact repeats. Equal entries are not always repeated. Where two headings read alike, the source gives them in different places.
# How the values were obtained:
# MDA-MB-231 cells [1] = system: MDA-MB-231 cells
# Description: Briefly, cells (5×10^3 cells/well) were seeded in 96-well plates and treated with BSO at concentrations 100 μM, 45 μM, 18 μM, 7.2 μM, 2.8 μM, 1.15 μM, 461 nM, 184 nM, 74 nM and 29 nM, and sulfasalazine at concentrations 62.75 μM, 25.10 μM, 10 μM, 4 μM, 1.6 μM, 642 nM, 257 nM, 102 nM, 41 nM and 16.4 nM for 30 h, and then 12 μM DET or 3 μM DETD-35 were added in the cultural medium to treat the cells for another 24 h. Cell proliferation was measured by MIT assay.
# [2] = system: A498 kidney cancer cell line; assay: MTT cell viability assay, A498; assay type: cell-based; settings: Homo sapiens, 24 h
# Description: (§1) Normal or cancer cells (2×10^3 to 1×10^4 cells/well) were seeded in 96-well plate for overnight and treated with different compounds for 24 h to 72 h. Cells growth were determined by MTT-based colorimetric assays according to. Viability of the test cells treated with vehicle (0.5% DMSO) only was defined as 100% viable. Survival of cells after treatment with DETDs was calculated using the following formula: viable cell number (%)=OD570 (treated cell culture)/OD570 (vehicle control)×100.
# (§2) Based on toxicity results of DET and DETDs on different breast cancer and melanoma cell lines, we selected DETD-6, -32, -35 and -39, under the consideration of structure activity relationship for evaluating their suppression effect against other cancer types of cell line with indicated tumor origin in Table 5. […] The cells were treated with compounds for 24 h and then subjected to MTT assays.
# [3] = system: TS/A (ER+, Her2−) murine mammary cancer cells; assay: MTT cell viability assay, TS/A cells; assay type: cell-based; settings: Mus musculus
# In short: (§3)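 Cells (2×10^3 to 1×10^4 cells/well) were seeded overnight, then exposed to compounds for 24 h to 72 h. Growth was measured by MTT colorimetric assay, with viability calculated as OD570 of treated over vehicle (0.5% DMSO) control ×100.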
# [4] = system: NES-SA uterus cancer cell line; assay: MTT cell viability assay, NES-SA; assay type: cell-based; settings: 24 h
# Description: as §1, §2
# [5] = system: melanoma cell lines B16-F10, MeWo, A375, A2058, HTB-68; assay: MTT cell viability assay, all melanoma cell lines; assay type: cell-based; settings: 24 h, read-out: IC50 values over all types of melanoma cell lines
# In short: (§4)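 Cells seeded at 2×10^3 to 1×10^4 cells/well overnight, then exposed to compounds for 24 h to 72 h. Growth measured by MTT colorimetric assay; viability expressed as OD570 treated/OD570 vehicle (0.5% DMSO) ×100.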
# [6] = system: PC6 lung cancer cell line; assay: MTT cell viability assay, PC6; assay type: cell-based; settings: 24 h
# Description: as §1, §2
# A375 (BRAF mutation) = assay: MTT cell viability assay, A375 melanoma; assay type: cell-based, human; settings: Homo sapiens, MTT
# In short: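 A375 cells were seeded at 2×10^3 to 1×10^4 per well overnight and then exposed to compounds for 24 h to 72 h. Viability was measured by MTT absorbance at OD570 relative to 0.5% DMSO vehicle (100%), and IC50 was derived from it. Combination with PLX4032 was scored by combination index.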
# [7] = system: MeWo (No NRAS or BRAF mutation); assay: MTT cell viability assay, MeWo melanoma; assay type: cell-based, human; settings: Homo sapiens, MeWo, 24 h
# In short: as §4
# [8] = system: U-87MG brain cancer cell line; assay: MTT cell viability assay, U-87MG; assay type: cell-based; settings: Homo sapiens, 24 h
# Description: as §1, §2
# HTB-68 (NRAS mutation) = assay: MTT cell viability assay, HTB-68 melanoma; assay type: cell-based, human; settings: Homo sapiens, 24 h
# In short: as §4
# B16-F10 (NRAS mutation) = assay: MTT cell viability assay, B16-F10 melanoma; assay type: cell-based; settings: Mus musculus, B16-F10, 24 h
# In short: as §4
# [9] = system: MDA-MB-231 (ER−, PR−, Her2−) human breast cancer cells; assay: MTT cell viability assay, MDA-MB-231 cells; assay type: cell-based; settings: for IC50: Homo sapiens
# In short: as §3
# MDA-MB-231 cells [10] = assay: Compound-drug combination assay with PTX; assay type: cell-based, human; settings: 0-4 μM compound, 0-25 nM PTX
# Description: Cell proliferation was measured by MTT assay. Isobologram analysis and Chou-Talalay method was used to determine the effects of compound drug combinations. The interaction of DETDs and PLX4032 or PTX was determined by the combination index (CI), and the CI plot was generated using CompuSyn software. The combined effects of two compounds can be categorized as follows: CI=1 indicates additive interaction, CI<1 indicates synergism, and CI>1 indicates antagonism.
# To investigate whether or not DETD-35 and DETD-39 act synergistically with PTX against MDA-MB-231 cell activity, anti-proliferation assay using MTT reagent was performed to obtain the IC60 value of each compound. […] Based on the IC60 values, DETD-35 or DETD-39 ranging from 0 to 4 μM and PIX from 0 to 25 nM were used for compound-drug combination study. Classic isobologram analysis and Chou-Talalay method were conducted to investigate the synergistic effect of compound and drug. Combination index (CI) was calculated with CalcuSyn software (Version 2.0, Biosoft) and expressed as CI vs. Fa (fraction affected). CI<1 indicates synergy; CI=1 indicates additive effect; and CI>1 indicates antagonism.
# A2058 (BRAF mutation) = assay: MTT cell viability assay, A2058 melanoma; assay type: cell-based, human; settings: Homo sapiens, A2058, 24 h
# In short: as §4
# U937 lymphoma line = assay: MTT cell viability assay, U937; assay type: cell-based; settings: Homo sapiens, U-937, 24 h
# Description: as §1, §2
# [11] = system: HCT-116 colon cancer cell line; assay: MTT cell viability assay, HCT-116; assay type: cell-based; settings: Homo sapiens, 24 h
# Description: as §1, §2
# [12] = system: LPS-induced nitric oxide (NO) production in RAW 264.7 cells; assay: Nitric oxide production in LPS-stimulated macrophages (Griess); assay type: cell-based, mouse
# In short: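 RAW 264.7 macrophages (2×10^5 cells/well) were pretreated with compound for 1 h and then stimulated with 100 ng/μL LPS for 24 h. NO was measured as nitrite in the medium by the Griess reaction. Viability was checked in parallel by MTT.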
# [13] = system: RAW264.7 (normal macrophage); assay: MTT cell viability assay, RAW264.7 macrophages; assay type: cell-based, mouse; settings: Mus musculus, RAW264.7, 24 h
# In short: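 RAW264.7 macrophages (2×10^5 cells/well) pretreated with compounds 1 h, then incubated 24 h with or without 100 ng/μL LPS. Viability by MTT colorimetric assay run in parallel with Griess nitrite measurement.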
# [14] = system: Melanocyte (Normal cells); assay: MTT cell viability assay, normal melanocytes; assay type: cell-based, human; settings: Homo sapiens, Melanocyte, 24 h
# In short: as §4
# [15] = system: MCF-7 (ER+, Her2−) human breast cancer cells; assay: MTT cell viability assay, MCF-7 cells; assay type: cell-based
# In short: as §3
# PC3 (Prostate) = assay: MTT cell viability assay, PC3; assay type: cell-based; settings: 24 h
# Description: as §1, §2
# [16] = system: M10 normal mammary epithelial cells; assay: MTT cell viability assay, M10 normal cells; assay type: cell-based, human; settings: 24 h
# In short: as §3
# [17] = system: KATO III stomach cancer cell line; assay: MTT cell viability assay, KATO III; assay type: cell-based; settings: Homo sapiens, 24 h
# Description: as §1, §2
# [18] = system: SK-N-MC neuroepithelioma line; assay: MTT cell viability assay, SK-N-MC; assay type: cell-based; settings: Homo sapiens, 24 h
# Description: as §1, §2
# [19] = system: A375 human melanoma tumor; assay: A375 melanoma xenograft model in NOD/SCID mice; assay type: in vivo, mouse; settings: 20 mg/kg i.p.; PLX4032 every day, DET and DETD-35 every two days
# Description: (§5) A375 and A375-R melanoma cells (3×10^6) were injected subcutaneously to the flanks of the six weeks old NOD/SCID mice. One week after the inoculation, the mice were randomized into treated groups (n=8 per group) and the treatments were started. Body weight and tumor volume of the mice were recorded every three days using formula a×b^2×0.5, where a and b represented the larger and smaller tumor diameters.
# We used A375 human melanoma xenograft model to evaluate the in vivo bioefficacy of DET. DETD-35, PLX4032 and compound drug combination. […] For single compound or drug treatment group, PLX4032 was administered i.p. every day and DET and DETD-35 were administered i.p. every two days. For combination treatment, PLX4032 was administered every two days while DET and DETD-35 were administered every four days. […] Compound-drug combinational treatments were carried out with alternative administration of DET (20 mg/kg) or DETD-35 (20 mg/kg) and PLX4032 (20 mg/kg) by which DET or DETD-35 and PLX4032 treatment frequency were only half of the single compound or drug administration alone.
# [20] = system: A375-R acquired vemurafenib resistance melanoma cells; assay: MTT cell viability assay, PLX4032-resistant A375-R; assay type: cell-based, human; settings: 72 h
# Description: A375-R, acquired vemurafenib resistance melanoma cell was generated from A375 parental cell and grown in same conditions as A375 cell.
# as §1
# To study the mechanisms underlying how DETD-35 overcomes acquired resistance to BRAF inhibitor, we generated A375 cell line resistant to PLX4032 (designated A375-R). Briefly, A375 melanoma cells were seeded in T75 plate and treated with ascending concentration of PLX4032 (20, 50, 100, 250, 500, 1000, 2000 nM) through approximately 2 months and 20 passages.
# [21] = system: DMBA/TPA-induced skin papillomas accelerated by PLX4032
# Description: Dorsal skin of six weeks old female FVB/N mice were shaved and treated with topical application of DMBA (25 μg in 100 μL acetone). One week after DMBA treatment, the same skin area were treated topically twice weekly with 12-O-tetradecanoylphorbol-13-acetate (TPA) (4 μg in 100 μL acetone). The area was regularly shaved and tumor formation was assessed twice weekly, and tumors were defined as raised lesions of a minimum diameter of 1 mm.
# [22] = system: A375-R PLX4032-resistant melanoma tumor; assay: A375-R melanoma xenograft model in NOD/SCID mice; assay type: in vivo, mouse; settings: PLX4032 75 mg/kg
# Description: as §5
# To study whether or not DETD-35 could overcome acquired resistance to BRAF inhibitor, we generated A375 cell line resistant to PLX4032 (designated A375-R) as described above. We then conducted A375-R orthotopic xenograft study.
# [23] = DMBA/TPA + PLX4032 20 mg/kg i.p. twice per week
structure (smiles),measurement,setting,value
"CCCCS(=N)(=O)CCC(N)C(=O)O (stereo not shown) [BSO, buthionine sulfoximine]",cytotoxicity of blocker alone,MDA-MB-231 cells [1],did not show any cytotoxicity
C=C1C(=O)OC2CC3=C[C@@H](C/C(C)=C/C(OC(=O)/C=C/c4cccc(OC)c4)[C@H]12)OC3=O (stereo partly shown) [DETD-39],IC50,[2],480 nM
same,IC50,"[3]; 24 h, read-out: IC50 on cell viability, TS/A (ER+, Her2−)",800 nM
same,IC50,"[3]; Table 5, 24 h, read-out: IC50 viability TS/A (mouse) (Breast)",800 nM
same,IC50,[4],140 nM
same,IC50,[5],1600 to 9900 nM and 1600 to 3500 nM
same,IC50,[6],110 nM
same,IC50,"A375 (BRAF mutation); A-375, 24 h, 24 h, read-out: IC50 on cell viability, A375 (BRAF mutation)",1600 nM
same,IC50,[7],3500 nM
same,IC50,[8],150 nM
same,IC50,HTB-68 (NRAS mutation),3200 nM
same,IC50,"B16-F10 (NRAS mutation); 24 h, read-out: IC50 on cell viability, B16-F10 (NRAS mutation)",1700 nM
same,IC50,"B16-F10 (NRAS mutation); Table 5, 24 h, read-out: IC50 viability B16-F10 (mouse) (Skin)",1700 nM
same,IC60 on MDA-MB-231 cells,[9]; 24 h,3790 nM
same,IC50,"[9]; MDA-MB-231, 24 h, read-out: IC50 on cell viability, MDA-MB-231 (ER−, PR−, Her2−)",1900 nM
same,IC50,"[9]; MDA-MB-231, Table 5, 24 h, read-out: IC50 viability MDA-MB-231 (Breast)",1900 nM
same,"combination effect with PTX (isobologram, combination index)",MDA-MB-231 cells [10],acted synergistically
same,IC50,A2058 (BRAF mutation),2400 nM
same,IC50,U937 lymphoma line,100 nM
same,IC50,[11],100 nM
same,fold decrease in IC50 of NO production vs DET,[12],3 fold
same,IC50,"[12]; Mus musculus, LPS-stimulated RAW264.7, nitrite 24 h after LPS",1000 nM
same,IC50,[13],3500 nM
same,IC50,[14],9000 nM
same,IC50,"[15]; MCF7, 24 h, read-out: IC50 on cell viability, MCF-7 (ER+, Her2−)",2100 nM
same,IC50,"[15]; MCF7, Table 5, 24 h, read-out: IC50 viability MCF-7 (Breast)",2400 nM
same,IC50,PC3 (Prostate),2600 nM
same,"IC50 on cell viability, M10 (normal)",[16],some toxicity
same,IC50,"[16]; Homo sapiens, Epithelial cell",3700 nM
same,IC50,[17],290 nM
same,IC50,[18],110 nM
"CCCS(=O)(=O)Nc1ccc(F)c(C(=O)c2c[nH]c3ncc(-c4ccc(Cl)cc4)cc23)c1F [PLX4032, Vemurafenib]",reduction of tumor mass vs tumor control,[19],71.9%
same,"fold less sensitive, A375-R vs parental A375",[20],more than 100 fold
same,IC50,"[20]; Homo sapiens, MTT",8300 nM
same,IC50,"A375 (BRAF mutation); A-375, 72 h, 72 h, read-out: IC50 on A375 cells",70 nM
same,start of papillomas formation,"[21]; DMBA-TPA treated mice + PLX4032, without PLX4032 week 6 to 7",3 to 4 weeks
same,papillomas size in average,[21]; [23],77.6 mm^3
same,total papillomas number,[21]; [23],25.6
same,tumor growth rate and size relative to control group (100%),[22],98%
O=C(O)c1cc(/N=N/c2ccc(S(=O)(=O)Nc3ccccn3)cc2)ccc1O [sulfasalazine],cytotoxicity of blocker alone,MDA-MB-231 cells [1],did not show any cytotoxicity
